The values that follow come from PMC5356016, “Suppression of Sin3A activity promotes differentiation of pluripotent cells into functional neurons” (Scientific Reports, 2017).

Entries after “also recorded” stand apart in the source; their conditions may differ.

Experiment [1] concerns Sin3A PAH2-REST interaction. Put plainly: Competitive ELISA, inhibition of PAH2-REST binding. Further details: species or system mouse. The note with it: peptide 0-100 μM pre-incubated 2 h, room temperature, GST-REST 2 μg/mL, mean ± s.d., n = 3. A general note: ELISA stands for enzyme-linked immunosorbent assay.
The target of another experiment is Sin3A PAH2. To be noted: Mad1 protein sequence 6–21, ref [34]; cited from earlier work. The source says:
(§1) If this proposal is correct, a synthetic inhibitor of Sin3A-REST interactions should promote neurogenesis of these cells. Previous studies have shown that the N-terminal PAH1 and PAH2 domains of Sin3A bind to the N-terminal region of REST[6].

In experiment [2] the test system is Sin3A PAH1-REST interaction. Put plainly: Competitive ELISA, inhibition of PAH1-REST binding. Also noted: species or system mouse. To be noted: peptide 0-100 μM pre-incubated 2 h, room temperature, GST-REST 2 μg/mL, mean ± s.d., n = 3.
A further experiment relates to Sin3A-REST interaction. The experiment is described as follows: Co-immunoprecipitation of Sin3A and REST from P19 cell lysates. In kind it is biochemical, mouse. The note with it: peptide 0, 30, 60 μM, 2 h at 4 °C, anti-REST or anti-Sin3A immunoprecipitation, western blot, at least three experiments. The method, then: We next examined whether the Mad1 and SAP25 peptides block the Sin3A-REST interaction. First, the ability of these peptides to inhibit the associations of PAH1 and PAH2 with REST was determined using ELISA. […] However, the Mad1 and SAP25 peptides had little effect on the respective PAH1-REST and PAH2-REST interactions. The cellular inhibitory activities of these peptides were then determined using an immunoprecipitation analysis. After incubating P19 cell lysates with several concentrations of SAP25 and MAD1 peptides, REST in the cell lysates was immunoprecipitated using the anti-REST antibody. The precipitates were probed using the anti-Sin3A antibody. […]
Figure 5 Inhibitory effect of the SAP25 and Mad1 peptides on binding of Sin3A PAH1 or PAH2 to REST. […] Binding of GST-REST to PAH1 and PAH2 was measured using the anti-GST antibody and HRP conjugated secondary antibody (mean ± s.d., n = 3). […] Immunoprecipitation was performed with antibodies against (c) REST and (d) Sin3A, and the amount of co-precipitated proteins was then determined using western blot analysis. ‘Un’ indicates no treatment with a peptide. […]
Fluorescence polarization assay […]
After washing with TBST, GST-REST (2 µg/mL) was added to the wells and then incubated for 2 h. The bound GST-REST to PAH1 or PAH2 was detected by using anti-GST antibody […]
On the technique in general: In western blotting, separated proteins are transferred to a membrane and probed.

Experiment [3] has as its system mouse Sin3A PAH2 (residues 295–385). The experiment is described as follows: Fluorescence polarization binding to Sin3A PAH2. The note with it: 1 μM FITC-labeled peptide, PAH1 or PAH2 0-10 μM, 20 mM Tris-HCl, 150 mM NaCl, pH 7.5, 30 min, room temperature; ex 495/em 520 nm; mean ± s.d., n = 3. On the technique in general: In fluorescence polarisation assays a small probe gives low polarisation when free and higher when bound to something large.

Another experiment has as its system P19 cells. The experiment is described as follows: Neuronal differentiation of P19 cells (immunocytochemistry, western blot, RT-PCR). In kind it is cell-based, mouse. To be noted: 30 μM TAT, 10 days, Tuj1 antibody.
A further experiment concerns the target Sin3A PAH1. The note with it: SAP25 protein sequence 171–186, ref [35]; cited from earlier work.
Description: as §1

Experiment [4] has as its system mouse Sin3A PAH1 (residues 114–195). Put plainly: Fluorescence polarization binding to Sin3A PAH1. To be noted: 1 μM FITC-labeled peptide, PAH1 or PAH2 0-10 μM, 20 mM Tris-HCl, 150 mM NaCl, pH 7.5, 30 min, room temperature; ex 495/em 520 nm; mean ± s.d., n = 3.
Experiment [5] deals with voltage-gated sodium channels. The experiment is classed as cell-based, mouse.
The subject of experiment [6] is voltage-gated sodium channels. The experiment is classed as cell-based, mouse. This is another data set of the same source.

In the case of RMNIQMLLEAADYLERX [Mad1 peptide], the “inhibition of PAH2-REST binding (in words)” value in [1] is “the level of inhibition of binding of PAH2 to REST by Mad1 was greater than that of SAP25 toward PAH1-REST interactions”. For the same compound, the Kd at Sin3A PAH2 is 0.029 µM. The “inhibition of PAH1-REST binding (in words)” value in [2] is given as “little effect”. For the same compound, the “inhibition of Sin3A-REST interaction (in words)” value with Sin3A-REST interaction is reported as “much greater ability to block interactions of Sin3A with REST than the SAP25 peptide; also recorded: has inhibitory activity against REST-Sin3A interactions in cells”. The “binding to Sin3A PAH2 (in words)” value in experiment [3] is recorded as “interact with PAH2 much more strongly than PAH1”.

In the case of YGRKKRRQRRR [TAT], the “neuronal differentiation (in words), TAT control” value in the experiment with P19 cells was “did not affect neuronal differentiation”.

Regarding AEMIALAGLLQMSQGEX [SAP25 peptide], the “inhibition of PAH2-REST binding (in words)” value in experiment [1] was “little effect”. Besides, on Sin3A PAH1, the dissociation constant (Kd) is 0.134 µM. The “binding to Sin3A PAH1 (in words)” value in [4] is “bind PAH1 much more tightly than PAH2”. Moreover, the “inhibition of PAH1-REST binding (in words)” value in experiment [2] is “the level of inhibition of binding of PAH2 to REST by Mad1 was greater than that of SAP25 toward PAH1-REST interactions”. Besides, the “inhibition of Sin3A-REST interaction (in words)” value with Sin3A-REST interaction is reported as “Mad1 peptide exhibited a much greater ability to block interactions of Sin3A with REST than the SAP25 peptide”.

As to `NC1=N[C@H](O)[C@H]2[C@H]3O[C@]4(O)O[C@@H]([C@@H](O)[C@@]2(N1)[C@@H]4O)[C@]3(O)CO` [TTX, tetrodotoxin], the “effect of TTX on current injection-promoted action potentials (in words)” value in experiment [5] is given as “almost completely abrogated”. Further, the “effect of TTX on action potentials elicited by current injections (in words)” value in [6] is recorded as “almost completely blocked”.

A word on the Kd: it is the concentration at which binding is half-saturated.
